Measured values: patent US20050053912A1, “Methods for inducing reversible stasis” (priority 2001, published 2005)

What was measured:
zebrafish embryos [1] = test: Viability of zebrafish embryos treated with compound, in anoxia versus normoxia; format: in vivo; conditions: approx. 8 hpf embryos
From the text: Oxygen Deprivation Environments. For all studies an anaerobic bio-bag type A environmental chamber was used according to manufacturer's instructions (Becton Dickinson). This method contains a resazurin indicator that allows one to determine when the anoxic environment is established. A second method was used to verify suspended animation results. This method involved use of a chamber perfused with 100% N2 gas (Airgas Inc.) and monitored for oxygen using a FYRITE O2 Gas Analyzer (Bacharach, Pittsburgh, Pa.) and Resazurin Indicator (Becton Dickinson). By using these anoxia-producing methods, it took approximately two hours for the oxygen concentration to reach zero. Development of embryos could continue for another 1-2.5 hours, depending on the amount of water present.
This example describes the identification of a compound that causes fish embryos subjected to an anoxic/hypoxic environment to die. In this example, fish were maintained at 28° C. in fish water or embryo media (Westerfield, 1995). Briefly, zebrafish embryos at approximately 8 hpf were pre-treated with Pronase to remove the chorion. Approximately 10 pre-treated fish were placed in each 30 mm petrie dishes in either fish water or embryo media. […] After 24 hours in anoxia, the embryos were returned to room air and viability was assessed visually. […]

zebrafish embryos [2] = test: Induction of and exit from stasis in zebrafish embryos under normoxic conditions; format: in vivo
Experimental: This example describes the identification of a compound that causes fish embryos to enter stasis. In this example, fish were maintained at 28° C. in fish water or embryo media. Briefly, zebrafish embryos at approximately 8 hpf were pre-treated with Pronase to remove the chorion. Approximately 10 pre-treated fish were placed in 30 mm petrie dishes in either fish water or embryo media. Dilutions of Rotenone (Sigma, St. Louis, Mo.) were added to the pre-treated fish in concentrations from approximately 10 μg/ml reduced in half-logs concentrations down to approximately 10 ng/ml. The embryos were exposed to the compound for approximately 12 hours at 28° C. under normoxic conditions. As a control, pre-treated embryos were incubated in normoxic conditions at 28° C. for the same period of time. After incubation with the compound, the embryos were assessed visually for entry into stasis. […] The Rotenone-treated embryos were removed into fresh medium and incubated at 28° C. under normoxic conditions for 24 hours. The embryos were then assessed visually for the ability to exit stasis.

Row | Molecule | viability assessed visually after anoxia (zebrafish embryos [1]; 500 nM, approx. 2 h pre-exposure, 24 hours anoxia at 28° C., then returned to room air) | viability, treated embryos not placed in anoxia (zebrafish embryos [1]; normoxic conditions at 28° C. for 24 hours (control)) | entry into stasis assessed visually (zebrafish embryos [2]; 0.1 μg/ml, approx. 8 hpf embryos, approx. 12 hours at 28° C. under normoxic conditions) | ability to exit stasis assessed visually (zebrafish embryos [2]; embryos removed into fresh medium, 28° C., normoxic conditions for 24 hours)
1 | 1H, 5H, 11H, 15H-Xantheno[2,3,4-ij:5,6,7-i′j′]diquinolizin-18-ium, 9-[4-(chloromethyl)phenyl]-2,3,6,7,12,13,16,17-octahydro-, chloride [M[…]] | not viable | viable |  | 
2 | C=C(C)[C@H]1Cc2c(ccc3c2O[C@@H]2COc4cc(OC)c(OC)cc4[C@@H]2C3=O)O1 [Rotenone] |  |  | enter stasis | reversible stasis inducer
